The values below come from publication PMC10983004 (Journal of Medicinal Chemistry, 2024).

For data set [1], the target named is T1, TET1CD (Homo sapiens, UniProt Q8NFU7).
T1 sequence (Q8NFU7 1418-2136): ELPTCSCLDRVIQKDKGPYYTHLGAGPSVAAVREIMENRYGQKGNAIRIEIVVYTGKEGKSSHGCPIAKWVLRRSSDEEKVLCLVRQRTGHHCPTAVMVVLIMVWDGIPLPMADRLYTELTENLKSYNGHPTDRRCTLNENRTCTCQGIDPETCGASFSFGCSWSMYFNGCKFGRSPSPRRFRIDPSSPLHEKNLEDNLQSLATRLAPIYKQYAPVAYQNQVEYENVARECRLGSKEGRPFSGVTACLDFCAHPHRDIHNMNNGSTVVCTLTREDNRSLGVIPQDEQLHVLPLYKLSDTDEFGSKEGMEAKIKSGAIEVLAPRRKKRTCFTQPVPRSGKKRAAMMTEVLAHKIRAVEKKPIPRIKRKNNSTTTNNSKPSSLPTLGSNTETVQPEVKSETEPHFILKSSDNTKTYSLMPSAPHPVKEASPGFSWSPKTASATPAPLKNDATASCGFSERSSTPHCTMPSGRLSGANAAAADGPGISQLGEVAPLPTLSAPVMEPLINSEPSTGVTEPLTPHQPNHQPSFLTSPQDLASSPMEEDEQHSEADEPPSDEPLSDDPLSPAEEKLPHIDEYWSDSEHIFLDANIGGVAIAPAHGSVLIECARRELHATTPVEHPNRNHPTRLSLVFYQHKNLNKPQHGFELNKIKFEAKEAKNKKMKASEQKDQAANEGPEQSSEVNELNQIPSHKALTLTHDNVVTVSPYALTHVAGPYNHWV
The data set is described as follows: cell-based. The settings on record: U2OS, read-out: % inhibition of TET1 in cells at […].

Data set [2] addresses T1, TET1CD.
Data set [3] is described as follows: in vitro. To be noted: human, Cellular pCC50 TET1CD, nuclear count by DAPI staining, 24 h; named compound dosed.
In data set [4] the test system is BBOX1. The settings on record: read-out: IC50 BBOX1; [2OG] 40 µM, enzyme 25 nM; ref SI 4 (main 75); cited from earlier work.
The target in data set [5] is PHD1. To be noted: ref SI 6 (main 76); cited from earlier work.
Data set [6] deals with TET2CD (Homo sapiens, UniProt Q6N021).
The target of data set [7] is T2, KDM4B (Homo sapiens, UniProt O94953).
T2 sequence (O94953 1-1096): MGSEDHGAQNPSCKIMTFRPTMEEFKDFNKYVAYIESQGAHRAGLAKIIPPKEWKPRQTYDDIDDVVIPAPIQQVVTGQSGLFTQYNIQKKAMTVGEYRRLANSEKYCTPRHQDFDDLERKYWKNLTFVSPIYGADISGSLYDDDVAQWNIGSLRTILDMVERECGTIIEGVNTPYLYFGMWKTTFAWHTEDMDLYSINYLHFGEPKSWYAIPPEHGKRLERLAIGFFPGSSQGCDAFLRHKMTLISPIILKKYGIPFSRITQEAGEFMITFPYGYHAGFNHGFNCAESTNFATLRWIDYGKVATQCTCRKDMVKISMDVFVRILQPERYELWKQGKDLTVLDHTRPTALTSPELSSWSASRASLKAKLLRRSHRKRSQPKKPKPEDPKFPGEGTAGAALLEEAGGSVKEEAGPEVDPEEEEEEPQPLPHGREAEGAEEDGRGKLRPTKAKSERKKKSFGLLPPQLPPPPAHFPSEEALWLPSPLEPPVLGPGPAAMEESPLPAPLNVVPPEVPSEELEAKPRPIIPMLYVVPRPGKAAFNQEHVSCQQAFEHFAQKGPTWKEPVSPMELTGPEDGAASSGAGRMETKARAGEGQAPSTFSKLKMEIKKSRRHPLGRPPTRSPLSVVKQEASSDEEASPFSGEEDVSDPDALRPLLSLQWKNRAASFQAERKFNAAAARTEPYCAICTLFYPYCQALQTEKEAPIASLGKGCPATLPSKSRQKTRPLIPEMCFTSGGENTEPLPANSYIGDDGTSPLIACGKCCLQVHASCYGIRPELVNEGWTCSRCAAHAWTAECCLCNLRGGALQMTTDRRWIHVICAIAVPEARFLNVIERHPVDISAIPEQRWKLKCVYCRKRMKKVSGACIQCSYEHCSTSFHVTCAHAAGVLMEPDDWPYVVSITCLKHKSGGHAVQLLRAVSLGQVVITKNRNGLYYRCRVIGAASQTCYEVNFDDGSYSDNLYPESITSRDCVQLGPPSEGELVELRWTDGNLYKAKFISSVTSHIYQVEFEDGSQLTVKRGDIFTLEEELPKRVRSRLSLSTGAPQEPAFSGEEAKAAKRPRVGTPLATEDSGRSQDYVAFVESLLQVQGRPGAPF
In words: biochemical.

The target in data set [8] is T3, KDM6A (Homo sapiens, UniProt O15550). To be noted: read-out: IC50 KDM6A; [2OG] […]; ref SI 8 (main 64); cited from earlier work.
Data set [9] deals with FTO. To be noted: NOMO-1, U937, MA9.3ITD; dot blot and LC-MS/MS; ref SI 12; cited from earlier work.
In data set [10] the test system is ABH3. The settings on record: U87-MG, U373-MG, HT-1080; western blot; ref SI 11; cited from earlier work.
The test system of data set [11] is KDM5B. The settings on record: cited from earlier work.
The target of data set [12] is T4, KDM6B (Homo sapiens, UniProt O15054). The settings on record: read-out: Ki (calculated) KDM6B; Cheng-Prussoff from reported IC50; ref SI 8.
Data set [13] deals with T5, KDM2A (Homo sapiens, UniProt Q9Y2K7).
T5 sequence (Q9Y2K7 1-1162): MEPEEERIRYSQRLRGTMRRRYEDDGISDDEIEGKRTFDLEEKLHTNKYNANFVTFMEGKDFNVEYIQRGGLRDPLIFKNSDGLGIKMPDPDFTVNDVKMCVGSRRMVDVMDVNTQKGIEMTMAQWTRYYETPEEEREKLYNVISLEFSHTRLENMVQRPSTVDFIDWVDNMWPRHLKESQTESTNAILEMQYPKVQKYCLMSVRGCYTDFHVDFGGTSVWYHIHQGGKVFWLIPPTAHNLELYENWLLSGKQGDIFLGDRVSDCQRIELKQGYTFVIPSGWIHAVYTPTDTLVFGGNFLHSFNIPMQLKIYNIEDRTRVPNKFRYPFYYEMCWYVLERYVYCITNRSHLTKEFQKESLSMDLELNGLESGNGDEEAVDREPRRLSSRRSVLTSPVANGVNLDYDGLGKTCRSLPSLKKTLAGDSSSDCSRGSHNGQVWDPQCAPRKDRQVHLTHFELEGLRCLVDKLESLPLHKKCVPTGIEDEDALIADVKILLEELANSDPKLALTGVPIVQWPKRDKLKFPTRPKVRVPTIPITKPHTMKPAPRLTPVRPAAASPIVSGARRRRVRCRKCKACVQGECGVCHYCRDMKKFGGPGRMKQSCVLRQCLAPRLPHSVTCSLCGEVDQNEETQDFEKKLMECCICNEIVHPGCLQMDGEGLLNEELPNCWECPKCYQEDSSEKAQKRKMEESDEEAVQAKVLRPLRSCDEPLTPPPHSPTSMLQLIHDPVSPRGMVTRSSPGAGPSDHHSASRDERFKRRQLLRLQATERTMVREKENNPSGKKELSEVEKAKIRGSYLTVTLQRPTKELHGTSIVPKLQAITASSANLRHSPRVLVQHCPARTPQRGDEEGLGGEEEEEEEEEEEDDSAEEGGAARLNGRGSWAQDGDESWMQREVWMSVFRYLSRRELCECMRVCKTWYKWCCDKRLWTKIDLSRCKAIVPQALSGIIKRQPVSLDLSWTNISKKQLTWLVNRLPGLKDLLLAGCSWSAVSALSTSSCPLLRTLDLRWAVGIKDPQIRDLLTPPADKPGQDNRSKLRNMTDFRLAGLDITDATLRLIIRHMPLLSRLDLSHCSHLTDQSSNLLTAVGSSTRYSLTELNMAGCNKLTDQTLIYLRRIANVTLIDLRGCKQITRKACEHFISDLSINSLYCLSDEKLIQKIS
The settings on record: read-out: Ki (calculated) KDM2A; Cheng-Prussoff from reported IC50; ref 75 (SI ref 4).

Data set [14] relates to KDM5B. To be noted: read-out: IC50 KDM5B (14CO2 radioactive); [2OG] 40 µM; ref SI 8 (main 64); cited from earlier work.
In data set [15] the target is T3, KDM6A. The settings on record: read-out: Ki (calculated) KDM6A; Cheng-Prussoff from reported IC50; ref SI 8.
Data set [16] addresses T4, KDM6B. To be noted: read-out: IC50 KDM6B; [2OG] 200 µM; ref SI 8 (main 64); cited from earlier work.
The target in data set [17] is PHD3. The settings on record: ref SI 6 (main 76); cited from earlier work.
Data set [18] addresses T2, KDM4B. The settings on record: read-out: IC50 KDM4B; [2OG] 20 µM; ref SI 8 (main 64); cited from earlier work.
Data set [19] relates to PHD1, PHD2, PHD3. To be noted: RCC4/VHLHA, Hep3B, MCF7; western blot; ref SI 4; cited from earlier work. In general terms: A western blot detects proteins with antibodies after separation by electrophoresis.
The subject of data set [20] is FIH. The settings on record: read-out: IC50 FIH; [2OG] 100 µM, enzyme 1,000 nM; ref SI 4 (main 75); cited from earlier work.

T3 sequence (O15550 whole entry): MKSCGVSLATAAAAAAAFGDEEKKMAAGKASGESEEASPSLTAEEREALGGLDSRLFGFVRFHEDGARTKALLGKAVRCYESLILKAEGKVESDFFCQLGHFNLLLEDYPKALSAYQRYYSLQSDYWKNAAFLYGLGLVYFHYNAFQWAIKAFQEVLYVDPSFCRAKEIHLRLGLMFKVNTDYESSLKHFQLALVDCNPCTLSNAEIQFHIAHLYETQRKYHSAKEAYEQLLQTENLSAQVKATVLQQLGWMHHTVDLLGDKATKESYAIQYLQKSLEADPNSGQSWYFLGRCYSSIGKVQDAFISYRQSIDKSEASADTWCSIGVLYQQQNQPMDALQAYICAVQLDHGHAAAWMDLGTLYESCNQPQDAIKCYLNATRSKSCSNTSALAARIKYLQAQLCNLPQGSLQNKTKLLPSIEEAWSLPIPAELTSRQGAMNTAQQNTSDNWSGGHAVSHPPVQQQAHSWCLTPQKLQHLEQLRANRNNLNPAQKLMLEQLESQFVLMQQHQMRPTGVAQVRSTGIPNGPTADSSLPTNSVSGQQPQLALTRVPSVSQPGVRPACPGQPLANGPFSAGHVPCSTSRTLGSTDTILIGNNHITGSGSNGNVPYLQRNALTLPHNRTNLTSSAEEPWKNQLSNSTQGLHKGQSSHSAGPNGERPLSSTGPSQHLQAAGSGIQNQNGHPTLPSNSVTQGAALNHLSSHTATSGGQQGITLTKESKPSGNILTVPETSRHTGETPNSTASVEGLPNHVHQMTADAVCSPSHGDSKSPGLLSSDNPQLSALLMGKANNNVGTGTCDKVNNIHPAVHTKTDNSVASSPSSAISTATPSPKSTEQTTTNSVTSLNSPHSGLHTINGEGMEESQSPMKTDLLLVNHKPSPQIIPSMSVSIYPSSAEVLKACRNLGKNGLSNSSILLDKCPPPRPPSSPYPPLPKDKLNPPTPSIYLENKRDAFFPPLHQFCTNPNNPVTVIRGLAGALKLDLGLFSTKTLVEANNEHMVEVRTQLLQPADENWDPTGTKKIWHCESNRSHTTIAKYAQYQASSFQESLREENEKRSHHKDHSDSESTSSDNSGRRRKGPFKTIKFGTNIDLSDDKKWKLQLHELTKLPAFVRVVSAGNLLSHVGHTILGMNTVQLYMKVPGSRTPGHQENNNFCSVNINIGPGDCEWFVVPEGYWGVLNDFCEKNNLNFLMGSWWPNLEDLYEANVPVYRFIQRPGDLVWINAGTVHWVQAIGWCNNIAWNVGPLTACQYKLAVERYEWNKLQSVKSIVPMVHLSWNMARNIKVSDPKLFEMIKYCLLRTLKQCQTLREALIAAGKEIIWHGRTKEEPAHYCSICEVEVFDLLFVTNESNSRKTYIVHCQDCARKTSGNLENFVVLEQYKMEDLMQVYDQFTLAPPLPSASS
T4 sequence (O15054 whole entry): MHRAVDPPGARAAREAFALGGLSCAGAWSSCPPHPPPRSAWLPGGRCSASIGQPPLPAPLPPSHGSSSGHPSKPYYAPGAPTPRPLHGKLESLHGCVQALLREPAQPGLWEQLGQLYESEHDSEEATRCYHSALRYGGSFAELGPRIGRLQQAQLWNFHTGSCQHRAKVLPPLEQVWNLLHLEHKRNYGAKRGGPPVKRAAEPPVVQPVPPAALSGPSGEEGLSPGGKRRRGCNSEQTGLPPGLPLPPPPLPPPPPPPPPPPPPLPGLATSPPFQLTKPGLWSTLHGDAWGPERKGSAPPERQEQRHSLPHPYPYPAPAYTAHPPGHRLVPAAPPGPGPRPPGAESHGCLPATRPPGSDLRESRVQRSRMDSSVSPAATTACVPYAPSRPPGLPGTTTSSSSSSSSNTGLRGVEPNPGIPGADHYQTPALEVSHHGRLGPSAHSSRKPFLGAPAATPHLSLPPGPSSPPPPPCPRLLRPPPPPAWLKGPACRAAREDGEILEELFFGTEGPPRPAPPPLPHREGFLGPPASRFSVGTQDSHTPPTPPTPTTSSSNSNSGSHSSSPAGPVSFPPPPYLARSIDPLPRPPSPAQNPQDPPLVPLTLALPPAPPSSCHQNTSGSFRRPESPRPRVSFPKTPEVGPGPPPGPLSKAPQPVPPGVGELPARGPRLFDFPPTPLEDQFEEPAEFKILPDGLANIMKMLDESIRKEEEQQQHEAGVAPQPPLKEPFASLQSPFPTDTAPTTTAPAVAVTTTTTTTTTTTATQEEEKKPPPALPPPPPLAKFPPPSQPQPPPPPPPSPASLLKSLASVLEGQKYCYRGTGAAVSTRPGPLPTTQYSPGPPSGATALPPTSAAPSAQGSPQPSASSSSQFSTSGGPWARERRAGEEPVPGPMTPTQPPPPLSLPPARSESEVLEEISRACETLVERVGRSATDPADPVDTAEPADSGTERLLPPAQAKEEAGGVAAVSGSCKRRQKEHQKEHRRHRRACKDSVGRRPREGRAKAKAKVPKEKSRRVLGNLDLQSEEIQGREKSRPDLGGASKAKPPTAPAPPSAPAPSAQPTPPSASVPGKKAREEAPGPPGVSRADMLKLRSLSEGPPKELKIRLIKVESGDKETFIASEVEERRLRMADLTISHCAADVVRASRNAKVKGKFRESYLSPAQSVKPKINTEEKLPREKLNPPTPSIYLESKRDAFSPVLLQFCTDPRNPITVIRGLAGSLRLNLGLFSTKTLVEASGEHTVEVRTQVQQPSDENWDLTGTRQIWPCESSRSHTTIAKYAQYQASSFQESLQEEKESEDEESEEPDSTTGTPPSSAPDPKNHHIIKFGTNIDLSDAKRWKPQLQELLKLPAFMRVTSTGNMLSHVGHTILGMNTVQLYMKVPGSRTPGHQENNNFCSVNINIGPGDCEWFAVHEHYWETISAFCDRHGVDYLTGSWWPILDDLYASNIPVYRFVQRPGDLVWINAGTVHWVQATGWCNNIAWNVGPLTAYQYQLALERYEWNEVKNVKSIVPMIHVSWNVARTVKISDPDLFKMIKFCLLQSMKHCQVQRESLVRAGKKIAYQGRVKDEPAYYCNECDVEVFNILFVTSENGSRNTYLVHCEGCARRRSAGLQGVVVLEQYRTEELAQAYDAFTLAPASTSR

For `CCCCCCCCOC(=O)[C@H](O)CCC(=O)O` [octyl-(R)-2HG, R-Octyl-2-hydroxyglutarate], in data set [1], the inhibition (usually the relative decrease from the control value, in per cent) at 1500 µM was approximately 50%. For the same molecule, in data set [2], the 50% effective concentration (EC50) (as a rule, the concentration at which the effect is half-maximal) is approximately 1500 µM. In addition, the “Cellular pEC50 TET1CD” value in data set [2] (U2OS, 24 h with Dox induction, 5hmC IF, named compound dosed, replicates in parentheses) is given as 2.83 ± 0.09 (3). The same molecule had a CC50 at 24 h in [3] of more than 2000 µM.

Turning to `O=C(O)CC[C@@H](O)C(=O)O` [R-2HG, (2R)-hydroxyglutarate], the half-inhibitory concentration (IC50) (commonly the concentration that gives 50% inhibition) in [4] was 13200 µM; in [8], 180 µM; in data set [14], […]; in data set [16], 350 µM; in data set [18], 150 µM. Also, the Ki (in general, the dissociation constant of the complex between target and ligand, obtained from inhibition or displacement) in data set [5] is 1150 µM; in data set [7] it was 53 µM; in data set [12], 89 µM; in [13], 74 µM; in data set [15], 43 µM; in data set [17] it was 90 µM. Besides, in data set [6], the “α-value TET2CD” value was found to be 11 ± 13. Further, the “cellular inhibition FTO (in words)” value in [9] is “Inhibition”. Also, the “cellular inhibition ABH3 (in words)” value in data set [10] is reported as “Inhibition”. The “cellular inhibition KDM5B at 2.0 mM (in words)” value in data set [11] was “No inhibition”. The “cellular inhibition PHD1–3 (in words)” value in [19] is listed as “Putative inhibition of PHD”.

As for `O=C(O)CC[C@H](O)C(=O)O` [S-2HG, S-2-hydroxyglutarate], the IC50 in data set [4] is 142 µM; in data set [20], 189 µM; in [8], 180 µM; in data set [16], 750 µM; in data set [18] it was 450 µM. Besides, the figures for the Ki in [7], in data set [12] and in data set [15] were 158 µM, 191 µM and 43 µM, respectively. The “cellular inhibition KDM5B at 1.0 mM (in words)” value in data set [11] (U2OS, 1.0 mM, immunofluorescence, ref SI 10) is reported as “No inhibition”.
